Target: T1, PKB-PIF fusion protein (Homo sapiens, UniProt P31751)
T1 construct: made in house
Assay: Measurement of PKB kinase inhibitory activity (IC50), radiometric filter plate assay
Format: biochemical
Settings: 0.6 nM enzyme, 30 μM ATP, 25 μM AKTide-2T substrate, 20 minutes
Description: The reaction is allowed to proceed for 20 minutes before addition of excess orthophosphoric acid to quench activity. The reaction mixture is transferred to a phosphocellulose filter plate where the peptide binds and the unused ATP is washed away. After washing, scintillant is added and the incorporated activity measured by scintillation counting.

T1 sequence (P31751 with tags, fused parts or gaps limits assumed): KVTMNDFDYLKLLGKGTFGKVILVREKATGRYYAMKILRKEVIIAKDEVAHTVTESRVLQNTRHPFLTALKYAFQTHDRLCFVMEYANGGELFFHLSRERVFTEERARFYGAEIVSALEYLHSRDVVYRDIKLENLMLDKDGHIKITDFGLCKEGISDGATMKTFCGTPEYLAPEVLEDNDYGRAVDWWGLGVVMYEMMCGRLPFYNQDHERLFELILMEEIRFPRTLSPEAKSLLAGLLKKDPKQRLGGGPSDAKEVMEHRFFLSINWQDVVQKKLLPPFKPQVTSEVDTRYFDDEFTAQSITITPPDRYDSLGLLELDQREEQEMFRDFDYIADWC

| IC50 | SMILES |
| --- | --- |
| < 1000 nM | CNC[C@@H](c1ccc(Cl)cc1)c1ccc(-c2cn[nH]c2)cc1 [Example 22, {2-(4-Chloro-phenyl)-2-[4-(1H-pyrazol-4-yl)-phenyl]-ethyl}-methyl-amine (R)] |
| < 5000 nM | CNCC(c1ccccc1)c1ccc(-c2c[nH]nc2C)nc1 (centres unmarked) [Example 60] |
